Assay results: patent publication US8367653B2, “Azetidinyl diamides as monoacylglycerol lipase inhibitors” (Janssen Pharmaceutica NV, priority 2009, dated 2013)
Like-named read-outs stand apart in the source and are kept apart here.

What was measured:
hot plate = conditions: cited from earlier work
tail flick = conditions: intravenous delivery (Mechoulam et al. 1995); cited from earlier work
[1] = tested on: CFA-induced paw radiant heat hypersensitivity; assay: CFA-Induced Paw Radiant Heat Hypersensitivity; assay type: in vivo; conditions: CFA thermal hypersensitivity, rat, 30 mg/kg p.o., HPβCD; group mean values; last time point 180 or 300 min
Procedure: Each rat was placed in a test chamber on a warm glass surface and allowed to acclimate for approximately 10 min. A radiant thermal stimulus (beam of light) was then focused through the glass onto the plantar surface of each hind paw in turn. The thermal stimulus was automatically shut off by a photoelectric relay when the paw was moved or when the cut-off time was reached (20 sec for radiant heat at ˜5 amps). An initial (baseline) response latency to the thermal stimulus was recorded for each animal prior to the injection of complete Freund's adjuvant (CFA). […] Immediately following the post-CFA latency assessment, the indicated test compound or vehicle was administered orally.
The percent reversal (% R) of hypersensitivity was calculated in one of two different ways: 1) using group mean values or 2) using individual animal values. More specifically:
Method 2. For some compounds, the % R of hypersensitivity was calculated separately for each animal according to the following formula: % reversal=[(individual treatment response−individual CFA response)/(individual baseline response−individual CFA response)]×100. Results are given as a mean of the maximum % reversal values calculated for each individual animal.

[2] = target: T1, MGL (rat brain homogenate) (Rattus norvegicus, UniProt Q8R431); assay: 2-AG Accumulation Assay in rat brain homogenate; assay type: biochemical; conditions: 0.25 h, compound 1 μM, percent of vehicle 2-AG accumulation, read-out: Rat Brain 2AG % VehCntrl (%) @1 μM
T1 construct: pre-incubated with rat brain homogenate (50 mg); from tissue; host or cells: rat brain homogenate
T1 sequence (Q8R431 1-303): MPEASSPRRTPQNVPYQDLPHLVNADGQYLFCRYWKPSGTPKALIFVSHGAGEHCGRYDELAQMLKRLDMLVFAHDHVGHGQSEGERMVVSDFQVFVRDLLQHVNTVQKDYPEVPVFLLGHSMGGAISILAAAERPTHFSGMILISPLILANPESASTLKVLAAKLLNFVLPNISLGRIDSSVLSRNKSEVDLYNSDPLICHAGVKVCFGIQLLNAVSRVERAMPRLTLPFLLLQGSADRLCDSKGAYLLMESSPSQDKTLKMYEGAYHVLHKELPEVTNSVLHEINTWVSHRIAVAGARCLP

[3] = tested on: murine model of acute inflammation; conditions: Comelli et al. 2007; cited from earlier work

CCCCC/C=C\C/C=C\C/C=C\C/C=C\CCCC(=O)OC(CO)CO [2-AG, 2-arachidinoylglycerol]
analgesia in the hot plate assay (hot plate; combined with 2-linoleoyl glycerol and 2-palmitoyl glycerol (Ben-Shabat et al. 1998)): significant analgesia | analgesia in the hot plate assay (hot plate; given alone (Ben-Shabat et al. 1998)): not analgesic | analgesia in the hot plate assay (hot plate; intravenous delivery (Lichtman et al. 2002)): produces analgesia | analgesia in the tail flick assay (tail flick): produces analgesia

C/C(=C\c1ccc(Cl)cc1)c1c(C)c(C(=O)N2CC(N3CCN(C(=O)c4nccs4)CC3)C2)nn1-c1ccc(Cl)cc1Cl [Cpd 1010]
Method 1: peak % reversal [1]: 23.4%

Cc1ccc(-n2ccc3cc(C(=O)N4CC(N5CCN(C(=O)c6nccs6)CC5)C4)ccc32)nc1 [Cpd 1073, 1-(5-Methylpyridin-2-yl)-5-({3-[4-(1,3-thiazol-2-ylcarbonyl)piperazin-1-yl]azetidin-1-yl}carbonyl)-1H-indole]
activity at 1 µM [2]: 749%

O=C(c1ccc(-c2cccc(C(F)(F)F)c2)c(Cl)c1)N1CC(N2CCN(C(=O)c3cscn3)CC2)C1 [Cpd 1102]
Method 1: peak % reversal [1]: 38%

O=C(Nc1cccc(-c2ccccc2)c1)OC1CCCCC1 [URB602]
antinociceptive effect [3]: antinociceptive effect
